The text below walks through data of the supplement of paper PMC10307832.

Common to all, as to assay: relative viability (nuclei count vs DMSO), 5 days (fraction); higher = more cells survive
Compound in test [1]: C1=CC=C(C(=C1)C2=CC=C(C=C2)C3=CSC4=C3C(=C(C(=O)N4)C#N)O)O + CC(=O)c1c(C)c2cnc(Nc3ccc(N4CCNCC4)cn3)nc2n(C2CCCC2)c1=O [Palbociclib] (partner 0.5 µM)
The method, boiled down: (§1)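 Relative viability was taken as the ratio of nuclei in treated wells to nuclei in vehicle wells. Lung cancer cell lines in 1536-well plates received compounds by pin tool one day after seeding, either one drug alone or a fixed anchor-drug dose plus five library-drug doses (not always all listed) in √10 steps. Nuclei were counted on 4× images after 5 days of treatment, and values are medians of duplicate plates.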

Compound in the test “TGX 221 + Linsitinib”: CC1=CN2C(=O)C=C(N=C2C(=C1)C(C)NC3=CC=CC=C3)N4CCOCC4 [TGX 221] + C[C@]1(O)C[C@@H](c2nc(-c3ccc4ccc(-c5ccccc5)nc4c3)c3c(N)nccn32)C1 [Linsitinib] (partner 1 µM)
The method, boiled down:
as §1

Compound in test [2]: C1=CC=C(C(=C1)C2=CC=C(C=C2)C3=CSC4=C3C(=C(C(=O)N4)C#N)O)O + CC(C)C[C@H](NC(=O)[C@H](Cc1ccccc1)NC(=O)c1cnccn1)B(O)O [Bortezomib] (partner 0.002 µM)
The method, boiled down:
as §1

Compound in the test “Ricolinostat + OSI-027”: O=C(CCCCCCNC(=O)c1cnc(N(c2ccccc2)c2ccccc2)nc1)NO [Ricolinostat] + COc1cccc2cc(-c3nc([C@H]4CC[C@H](C(=O)O)CC4)n4ncnc(N)c34)[nH]c12 [OSI-027] (partner 0.5 µM)
The method, boiled down:
as §1

On to NCI-H441, for which the relative viability worked out at 0.208 in test [1] (first compound 0.08 µM); 0.21 in test [1] (first compound 0.253 µM); 0.184 in test [1] (first compound 0.8 µM); 0.275 in test [1] (first compound 2.53 µM); 0.21 in test [1] (first compound 8 µM); 0.623 with TGX 221 + Linsitinib (first compound 0.08 µM). Also, the relative viability in the test with TGX 221 + Linsitinib (first compound 0.253 µM) worked out at 0.644; with TGX 221 + Linsitinib (first compound 0.8 µM) it was 0.485; with TGX 221 + Linsitinib (first compound 2.53 µM), 0.571; in the test with TGX 221 + Linsitinib (first compound 8 µM), 0.548; in test [2] (first compound 0.253 µM), 0.534; in test [2] (first compound 2.53 µM), 0.757. For the same cell line, the relative viability worked out at 0.441 in test [2] (first compound 8 µM), 0.725 with Ricolinostat + OSI-027 (first compound 0.253 µM), 0.595 with Ricolinostat + OSI-027 (first compound 0.8 µM) and 0.59 in the test with Ricolinostat + OSI-027 (first compound 2.53 µM).

With NCI-H322M, the relative viability in test [1] (first compound 0.08 µM) is 0.461; in test [1] (first compound 0.253 µM), 0.468; in test [1] (first compound 0.8 µM), 0.467; in test [1] (first compound 2.53 µM), 0.483; in test [1] (first compound 8 µM) it was 0.49; with TGX 221 + Linsitinib (first compound 0.08 µM), 0.849. Besides, the relative viability in the test with TGX 221 + Linsitinib (first compound 0.253 µM) is 0.732; with TGX 221 + Linsitinib (first compound 0.8 µM), 0.708; with TGX 221 + Linsitinib (first compound 2.53 µM), 0.698; with TGX 221 + Linsitinib (first compound 8 µM) it was 1.02; in test [2] (first compound 0.08 µM), 1.13; in test [2] (first compound 0.253 µM), 1.22. For the same cell line, the relative viability worked out at 1.24 in test [2] (first compound 0.8 µM); 1.34 in test [2] (first compound 2.53 µM); 1.11 in test [2] (first compound 8 µM); 0.598 in the test with Ricolinostat + OSI-027 (first compound 0.253 µM); 0.532 with Ricolinostat + OSI-027 (first compound 0.8 µM); 0.51 with Ricolinostat + OSI-027 (first compound 2.53 µM).
